Source: US10202395B2, “Macrocycle with repeating triazole-carbazole units” (INDIANA UNIVERSITY RESEARCH & TECHNOLOGY CORPORATION, priority 2015, dated 2019)
Several values for one entry are separate records, joined by “and”; a condition that tells them apart may be missing. Identical values can stand only once.

Experiments:
[1] = Anion binding constants by UV-Vis titration, I^−; details: 20% MeOH/CHCl3; for K2/K1: I^−, positive cooperativity
Description: (§1) FIG. 2B depicts an exemplary plot of anion binding constants obtained from equilibrium restricted factor analysis (D. A. Griend, D. K. Bediako, M. J. DeVries, N. A. DeJong, L. P. Heeringa, Inorg Chem 2008, 47, 656-662) of UV-Vis titration data (20% MeOH/CHCl3). Salts added as TBA^+ with exception of FeCl4^− added as the 1-ethyl-3-methylimidazolium salt.
(§2) The tricarb-anion stability constants were determined from UV-Vis titrations and evaluated using equilibrium restricted factor analysis (D. A. Griend, D. K. Bediako, M. J. DeVries, N. A. DeJong, L. P. Heeringa, Inorg Chem 2008, 47, 656-662) as implemented with Sivvu by employing the following equilibria: tricarb+X^− ? tricarb·X^−K1 (1) tricarb·X^−+tricarb ? tricarb2·X^−K2 (2) 2 tricarb+X^− ? tricarb2·X^−β2 (3)

[2] = Anion binding constants by UV-Vis titration, ClO4^−; details: 20% MeOH/CHCl3; for logβ2: 2:1 sandwich; for K2/K1: ClO4^−, positive cooperativity
Description: as §1, §2

[3] = Anion binding constants by UV-Vis titration, ReO4^−; details: 20% MeOH/CHCl3; for K2/K1: ReO4^−, positive cooperativity
Description: as §1, §2

[4] = Anion binding constants by UV-Vis titration, PF6^−; details: 20% MeOH/CHCl3; for logβ2: 2:1 sandwich; for K2/K1: PF6^−, positive cooperativity
Description: as §1, §2

[5] = Anion binding constants by UV-Vis titration, SbF6^−; details: 20% MeOH/CHCl3; for logβ2: 2:1 sandwich; for K2/K1: SbF6^−, positive cooperativity
Description: as §1, §2

[6] = Anion binding constants by UV-Vis titration, FeCl4^−; details: 20% MeOH/CHCl3; for K2/K1: FeCl4^−, positive cooperativity
Description: as §1, §2

[7] = Solution phase self-association, variable concentration UV-Vis, isodesmic equal-K model; type: physicochemical
Description: Solution phase self-association was examined using variable concentration ^1H NMR and UV-Vis spectra. All aromatic ^1H NMR peaks shift upfield (FIG. 3B) with concentration (10×10^−6 M−2×10^−3 M) consistent with p stacking (R. B. Martin, Chem. Rev. 1996, 96, 3043-3064). UV-Vis spectroscopy was used to quantify the extent of self-association (S. A. Jenekhe, L. Lu, M. M. Alam, Macromolecules 2001, 34, 7315-7324) (0.7 to 24×10^−6 M, FIG. 3C). An isodesmic equal-K model (R. B. Martin, Chem. Rev. 1996, 96, 3043-3064) was used to quantify self-association (KE) to give KE=300,000±10,000 M^−1 in 20% MeOH/CHCl3 (ε=10.4). The self-association is high relative to other macrocycles (W. Zhang, J. S. Moore, Angew. Chem. Int. Ed. 2006, 45, 4416-4439) and believed to be driven by solvophobic effects and dipolar coupling. Consistent with dipolar coupling, use of pure CHCl3 with a lower polarity (ε=4.8), increases KE to 790,000±30,000 M^−1 (S.-L. Lee, Z. Yuan, L. Chen, K. S. Mali, K. Müllen, S. De Feyter, J Am. Chem. Soc. 2014, 136, 4117-4120; S.-L. Lee, Z. Yuan, L. Chen, K. S. Mali, K. Müllen, S. De Feyter, J. Am. Chem. Soc. 2014; P. Samori, N. Severin, C. D. Simpson, K. Müllen, J. P. Rabe, J. Am. Chem. Soc. 2002, 124, 9454-9457).

[8] = Cyclic voltammetry in solution; type: physicochemical; details: 1×10^−3 M, 0.1 M tetrabutylammonium hexafluorophosphate, glassy carbon working electrode, chloroform, room temperature
Description: FIG. 7 depicts a representative current-voltage response curve recorded using cyclic voltammetry of tricarb of Formula (IB) in solution. […] Conditions: [tricarb of Formula (IB)]=1×10^−3 M, 0.1 M tetrabutylammonium hexafluorophosphate, glassy carbon working electrode, platinum counter electrode, chloroform, room temperature, Ar degassed.

[9] = listed as tricarb of Formula (I)
[10] = ClO4^− as tetrabutylammonium salt
[11] = ReO4^− as tetrabutylammonium salt
[12] = PF6^− as tetrabutylammonium salt
[13] = SbF6^− as tetrabutylammonium salt
[14] = FeCl4^− as 1-ethyl-3-methylimidazolium salt

logβ2 ([1]; I^− as tetrabutylammonium salt, 2:1 sandwich): 9.3 ± 0.3 | logK1 ([1]; I^− as tetrabutylammonium salt, tricarb+X^− = tricarb·X^−): 4.3 ± 0.1 | logK2 ([1]; I^− as tetrabutylammonium salt, tricarb·X^−+tricarb = tricarb2·X^−): 5.1 ± 0.2 | K2/K1 ([1]; listed as tricarb): 6 ± 3 | K2/K1 [1, 9]: ~5 | logK1 [2, 10]: 4.04 ± 0.01 | logK2 [2, 10]: 5.87 ± 0.01 | logβ2 ([2]; ClO4^− as tetrabutylammonium salt, listed as Tricarb of Formula (IB)): 10 | logβ2 ([2]; ClO4^− as tetrabutylammonium salt, listed as tricarb): 10.04 ± 0.02 | K2/K1 ([2]; listed as tricarb): 67 ± 3 | K2/K1 [2, 9]: ~70 | logK1 [3, 11]: 3.8 ± 0.1 | logK2 [3, 11]: 6.2 ± 0.1 | logβ2 ([3]; ReO4^− as tetrabutylammonium salt, 2:1 sandwich): 10.0 ± 0.2 | K2/K1 ([3]; listed as tricarb): 200 ± 100 | K2/K1 [3, 9]: 200 | logK1 [4, 12]: 4.46 ± 0.01 | logK2 [4, 12]: 6.94 ± 0.01 | logβ2 ([4]; PF6^− as tetrabutylammonium salt, listed as Tricarb of Formula (IB)): 11.4 | logβ2 ([4]; PF6^− as tetrabutylammonium salt, listed as tricarb): 11.40 ± 0.02 | K2/K1 ([4]; listed as tricarb): 300 ± 60 | K2/K1 [4, 9]: 300 | logK1 [5, 13]: 5.2 ± 0.2 | logK2 [5, 13]: 6.4 ± 0.2 | logβ2 ([5]; SbF6^− as tetrabutylammonium salt, listed as Tricarb of Formula (IB)): 11.6 | logβ2 ([5]; SbF6^− as tetrabutylammonium salt, listed as tricarb): 11.6 ± 0.4 | K2/K1 ([5]; listed as tricarb): 30 ± 20 | K2/K1 [5, 9]: ~30 | logK1 [6, 14]: 4.0 ± 0.1 | logK2 [6, 14]: 3.7 ± 0.2 | logβ2 ([6]; FeCl4^− as 1-ethyl-3-methylimidazolium salt, 2:1 sandwich): 7.7 ± 0.3 | K2/K1 ([6]; listed as tricarb): 5.2 ± 0.2 | K2/K1 [6, 9]: ~5 | self-association (KE) ([7]; 20% MeOH/CHCl3 (ε=10.4), 0.7 to 24×10^−6 M): 300,000±10,000 M^−1 | self-association (KE) ([7]; pure CHCl3 (ε=4.8)): 790,000±30,000 M^−1 | half-wave oxidation potential E1/2 [8]: 0.8 V vs Ag/AgCl | peak potentials [8]: 0.95 V and 0.65 V
Structure (SMILES): CCCCCCCCCCn1c2ccc3cc2c2cc(ccc21)n1cc(nn1)c1ccc2c(c1)c1cc(ccc1n2CCCCCCCCCC)n1cc(nn1)c1ccc2c(c1)c1cc(ccc1n2CCCCCCCCCC)n1cc3nn1 [tricarb of Formula (IB), tridecyl-tricarbazolo-triazolophane]
